# PubChem BioAssay (NCI)
#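 96-well plates; 48 h exposure; 5 concentrations. Endpoints by linear interpolation between flanking doses. Not reached: highest tested concentration assigned. TGI marks complete inhibition of growth.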
# Key:
# Assay in all cases: NCI tumour cell line growth inhibition, 48 h
# NCI-H23 lung = system: NCI-H23 lung
# RPMI-8226 leukemia = system: RPMI-8226 leukemia
# SK-MEL-5 melanoma = system: SK-MEL-5 melanoma
# NCI/ADR-RES ovarian = system: NCI/ADR-RES ovarian
# SF-539 CNS = system: SF-539 CNS
# SNB-75 CNS = system: SNB-75 CNS
# MALME-3M melanoma = system: MALME-3M melanoma
# EKVX NSCLC = system: EKVX NSCLC
# HOP-62 NSCLC = system: HOP-62 NSCLC
# OVCAR-5 ovarian = system: OVCAR-5 ovarian
# UACC-62 melanoma = system: UACC-62 melanoma
# HCT-15 colon = system: HCT-15 colon
# M14 melanoma = system: M14 melanoma
# NCI-H226 lung = system: NCI-H226 lung
# NCI-H460 lung = system: NCI-H460 lung
# OVCAR-8 ovarian = system: OVCAR-8 ovarian
# MDA-MB-435 = system: MDA-MB-435
# MDA-MB-231 breast = system: MDA-MB-231 breast
# HS 578T breast = system: HS 578T breast
# MDA-N = system: MDA-N
# SK-OV-3 ovarian = system: SK-OV-3 ovarian
# UO-31 renal = system: UO-31 renal
# SR leukemia = system: SR leukemia
# 786-0 renal = system: 786-0 renal
# SK-MEL-2 melanoma = system: SK-MEL-2 melanoma
# PC-3 prostate = system: PC-3 prostate
# HCT-116 colon = system: HCT-116 colon
# NCI-H522 lung = system: NCI-H522 lung
# SK-MEL-28 melanoma = system: SK-MEL-28 melanoma
# ACHN renal = system: ACHN renal
# TK-10 renal = system: TK-10 renal
# SF-295 CNS = system: SF-295 CNS
# LOX IMVI melanoma = system: LOX IMVI melanoma
# KM12 colon = system: KM12 colon
# HT29 colon = system: HT29 colon
# MCF7 breast = system: MCF7 breast
# A549 NSCLC = system: A549 NSCLC
# HCC-2998 colon = system: HCC-2998 colon
# RXF 393 renal = system: RXF 393 renal
# K-562 leukemia = system: K-562 leukemia
# HOP-92 NSCLC = system: HOP-92 NSCLC
# OVCAR-4 ovarian = system: OVCAR-4 ovarian
# U251 CNS = system: U251 CNS
# OVCAR-3 ovarian = system: OVCAR-3 ovarian
# BT-549 breast = system: BT-549 breast
# SN12C renal = system: SN12C renal
# COLO 205 colon = system: COLO 205 colon
# A498 renal = system: A498 renal
# SNB-19 CNS = system: SNB-19 CNS
# CAKI-1 renal = system: CAKI-1 renal
# UACC-257 melanoma = system: UACC-257 melanoma
# IGROV1 ovarian = system: IGROV1 ovarian
# SF-268 CNS = system: SF-268 CNS
# SW-620 colon = system: SW-620 colon
# DU-145 prostate = system: DU-145 prostate
# HL-60(TB) leukemia = system: HL-60(TB) leukemia
# T-47D breast = system: T-47D breast
# MOLT-4 leukemia = system: MOLT-4 leukemia
# CCRF-CEM leukemia = system: CCRF-CEM leukemia
smiles,measurement,setting,value
CC(C)COC(c1ccc2c(c1)OCO2)C(C)Br (stereo not given),TGI,NCI-H23 lung,72.9 µM
same,TGI,RPMI-8226 leukemia,43 µM
same,TGI,SK-MEL-5 melanoma,36.4 µM
same,TGI,NCI/ADR-RES ovarian,90.2 µM
same,TGI,SF-539 CNS,71.3 µM
same,TGI,SNB-75 CNS,55.7 µM
same,TGI,MALME-3M melanoma,36.1 µM
same,TGI,EKVX NSCLC,76 µM
same,TGI,HOP-62 NSCLC,77.9 µM
same,TGI,OVCAR-5 ovarian,49.3 µM
same,TGI,UACC-62 melanoma,> 100 µM
same,TGI,HCT-15 colon,66.1 µM
same,TGI,M14 melanoma,50.9 µM
same,TGI,NCI-H226 lung,70.7 µM
same,TGI,NCI-H460 lung,51.5 µM
same,TGI,OVCAR-8 ovarian,> 100 µM
same,TGI,MDA-MB-435,51.7 µM
same,TGI,MDA-MB-231 breast,> 100 µM
same,TGI,HS 578T breast,64.6 µM
same,TGI,MDA-N,53.8 µM
same,TGI,SK-OV-3 ovarian,80 µM
same,TGI,UO-31 renal,67.5 µM
same,TGI,SR leukemia,46.1 µM
same,TGI,786-0 renal,62.3 µM
same,TGI,SK-MEL-2 melanoma,44.3 µM
same,TGI,PC-3 prostate,> 100 µM
same,TGI,HCT-116 colon,38.7 µM
same,TGI,NCI-H522 lung,37.8 µM
same,TGI,SK-MEL-28 melanoma,> 100 µM
same,TGI,ACHN renal,> 100 µM
same,TGI,TK-10 renal,> 100 µM
same,TGI,SF-295 CNS,53.6 µM
same,TGI,LOX IMVI melanoma,35.4 µM
same,TGI,KM12 colon,55 µM
same,TGI,HT29 colon,45.5 µM
same,TGI,MCF7 breast,86.9 µM
same,TGI,A549 NSCLC,> 100 µM
same,TGI,HCC-2998 colon,38.6 µM
same,TGI,RXF 393 renal,23.2 µM
same,TGI,K-562 leukemia,> 100 µM
same,TGI,HOP-92 NSCLC,68.8 µM
same,TGI,OVCAR-4 ovarian,> 100 µM
same,TGI,U251 CNS,93.8 µM
same,TGI,OVCAR-3 ovarian,34.8 µM
same,TGI,BT-549 breast,> 100 µM
same,TGI,SN12C renal,45 µM
same,TGI,COLO 205 colon,49.7 µM
same,TGI,A498 renal,> 100 µM
same,TGI,SNB-19 CNS,> 100 µM
same,TGI,CAKI-1 renal,> 100 µM
same,TGI,UACC-257 melanoma,55.5 µM
same,TGI,IGROV1 ovarian,> 100 µM
same,TGI,SF-268 CNS,59.7 µM
same,TGI,SW-620 colon,> 100 µM
same,TGI,DU-145 prostate,> 100 µM
CC1(C)OC(=O)C(=Cc2ccc([N+](=O)[O-])s2)C(=O)O1,TGI,NCI-H23 lung,39.1 µM
same,TGI,RPMI-8226 leukemia,37.1 µM
same,TGI,SK-MEL-5 melanoma,30 µM
same,TGI,HL-60(TB) leukemia,5.59 µM
same,TGI,NCI/ADR-RES ovarian,39.8 µM
same,TGI,SF-539 CNS,29.4 µM
same,TGI,MALME-3M melanoma,34.2 µM
same,TGI,EKVX NSCLC,31.8 µM
same,TGI,HOP-62 NSCLC,35.1 µM
same,TGI,OVCAR-5 ovarian,31.2 µM
same,TGI,T-47D breast,38 µM
same,TGI,HCT-15 colon,14.2 µM
same,TGI,M14 melanoma,26.5 µM
same,TGI,NCI-H226 lung,60.5 µM
same,TGI,NCI-H460 lung,> 100 µM
same,TGI,OVCAR-8 ovarian,31.3 µM
same,TGI,MDA-MB-435,30.4 µM
same,TGI,MDA-MB-231 breast,36.4 µM
same,TGI,MDA-N,32.5 µM
same,TGI,SK-OV-3 ovarian,65.3 µM
same,TGI,UO-31 renal,23.6 µM
same,TGI,SR leukemia,6.31 µM
same,TGI,786-0 renal,32.2 µM
same,TGI,PC-3 prostate,38.1 µM
same,TGI,HCT-116 colon,9.84 µM
same,TGI,SK-MEL-28 melanoma,34.6 µM
same,TGI,ACHN renal,27.3 µM
same,TGI,TK-10 renal,31.5 µM
same,TGI,SF-295 CNS,30.4 µM
same,TGI,LOX IMVI melanoma,32.6 µM
same,TGI,KM12 colon,29 µM
same,TGI,MOLT-4 leukemia,24.6 µM
same,TGI,HT29 colon,38.5 µM
same,TGI,MCF7 breast,68.4 µM
same,TGI,A549 NSCLC,> 100 µM
same,TGI,HCC-2998 colon,24.7 µM
same,TGI,HOP-92 NSCLC,37.9 µM
same,TGI,U251 CNS,30.4 µM
same,TGI,OVCAR-3 ovarian,23.2 µM
same,TGI,BT-549 breast,26.8 µM
same,TGI,SN12C renal,31.6 µM
same,TGI,COLO 205 colon,31 µM
same,TGI,A498 renal,54.7 µM
same,TGI,CCRF-CEM leukemia,88.6 µM
same,TGI,SNB-19 CNS,31.6 µM
same,TGI,CAKI-1 renal,29.5 µM
same,TGI,UACC-257 melanoma,35.8 µM
same,TGI,SF-268 CNS,29.5 µM
same,TGI,SW-620 colon,4.1 µM
same,TGI,DU-145 prostate,30.9 µM
